Data: ChEMBL document CHEMBL6103591, “Discovery of naphthoquinone-furo-piperidone derivatives as dual targeting agents of STAT3 and NQO1 for the treatment of breast cancer” (Eur J Med Chem, 2025)
pIC50: −log10 of the molar value.

Tests used:
MDA-MB-468 [1] = experiment: Induction of apoptosis in human MDA-MB-468 cells assessed as late apoptotic cells at 1.5 uM measured after 24 hrs by Annexin V/propidium iodide (PI) double staining based flow cytometric analysis (reference value: 2.24 %); assay type: functional
MDA-MB-468 [2] = experiment: Induction of apoptosis in human MDA-MB-468 cells assessed as early apoptotic cells at 3 uM measured after 24 hrs by Annexin V/propidium iodide (PI) double staining based flow cytometric analysis (reference value: 4.97 %); assay type: functional
MDA-MB-468 [3] = experiment: Induction of apoptosis in human MDA-MB-468 cells assessed as early apoptotic cells at 3 uM measured after 24 hrs in presence of Z-VAD-FMK by Annexin V/propidium iodide (PI) double staining based flow cytometric analysis (reference value: 4.97 %); assay type: functional
MDA-MB-231 [4] = experiment: Induction of apoptosis in human MDA-MB-231 cells assessed as late apoptotic cells at 3 uM measured after 24 hrs by Annexin V/propidium iodide (PI) double staining based flow cytometric analysis (reference value: 2.22 %); assay type: functional
MDA-MB-231 [5] = experiment: Induction of apoptosis in human MDA-MB-231 cells assessed as early apoptotic cells at 3 uM measured after 24 hrs by Annexin V/propidium iodide (PI) double staining based flow cytometric analysis (reference value: 1.99 %); assay type: functional
MDA-MB-231 [6] = experiment: Antiproliferative activity against human MDA-MB-231 cells assessed as reduction in cell viability incubated for 48 hrs by MTT assay; assay type: functional, cell-based; details: MDA-MB-231, 48 h
MDA-MB-231 [7] = experiment: Induction of apoptosis in human MDA-MB-231 cells assessed as early apoptotic cells at 3 uM measured after 24 hrs by Annexin V/propidium iodide (PI) double staining based flow cytometric analysis (reference value: 1.98 %); assay type: functional
MDA-MB-231 [8] = experiment: Induction of apoptosis in human MDA-MB-231 cells assessed as early apoptotic cells at 3 uM measured after 24 hrs in presence of Z-VAD-FMK by Annexin V/propidium iodide (PI) double staining based flow cytometric analysis (reference value: 1.99 %); assay type: functional
MDA-MB-468 [9] = experiment: Induction of apoptosis in human MDA-MB-468 cells assessed as early apoptotic cells at 3 uM measured after 24 hrs by Annexin V/propidium iodide (PI) double staining based flow cytometric analysis (reference value: 2.94 %); assay type: functional
MCF7 = experiment: Antiproliferative activity against human MCF7 cells incubated for 48 hrs by MTT assay; assay type: functional, cell-based; details: MCF7, 48 h
[10] = target: Signal transducer and activator of transcription 3 (Homo sapiens, UniProt P40763); experiment: Inhibition of STAT3 (unknown origin) activation transfected in HEK293 preincubated for 30 mins followed by IL-6 addition and measured after 24 hrs by luciferase reporter gene assay; assay type: cell-based
MDA-MB-231 [11] = experiment: Induction of apoptosis in human MDA-MB-231 cells assessed as late apoptotic cells at 1.5 uM measured after 24 hrs by Annexin V/propidium iodide (PI) double staining based flow cytometric analysis (reference value: 2.22 %); assay type: functional
MDA-MB-231 [12] = experiment: Induction of apoptosis in human MDA-MB-231 cells assessed as early apoptotic cells at 1.5 uM measured after 24 hrs by Annexin V/propidium iodide (PI) double staining based flow cytometric analysis (reference value: 1.98 %); assay type: functional
MDA-MB-468 [13] = experiment: Induction of apoptosis in human MDA-MB-468 cells assessed as late apoptotic cells at 3 uM measured after 24 hrs in presence of Z-VAD-FMK by Annexin V/propidium iodide (PI) double staining based flow cytometric analysis (reference value: 2.12 %); assay type: functional
[14] = Cytotoxicity against human MCF-10A cells; assay type: toxicity, cell-based
MDA-MB-468 [15] = experiment: Induction of apoptosis in human MDA-MB-468 cells assessed as late apoptotic cells at 3 uM measured after 24 hrs by Annexin V/propidium iodide (PI) double staining based flow cytometric analysis (reference value: 2.24 %); assay type: functional
MDA-MB-468 [16] = experiment: Antiproliferative activity against human MDA-MB-468 cells assessed as reduction in cell viability incubated for 48 hrs by MTT assay; assay type: functional, cell-based; details: MDA-MB-468, 48 h
MDA-MB-231 [17] = experiment: Induction of apoptosis in human MDA-MB-231 cells assessed as late apoptotic cells at 3 uM measured after 24 hrs in presence of Z-VAD-FMK by Annexin V/propidium iodide (PI) double staining based flow cytometric analysis (reference value: 1.84 %); assay type: functional
MDA-MB-468 [18] = experiment: Induction of apoptosis in human MDA-MB-468 cells assessed as late apoptotic cells at 3 uM measured after 24 hrs by Annexin V/propidium iodide (PI) double staining based flow cytometric analysis (reference value: 2.12 %); assay type: functional
MDA-MB-468 [19] = experiment: Induction of apoptosis in human MDA-MB-468 cells assessed as early apoptotic cells at 1.5 uM measured after 24 hrs by Annexin V/propidium iodide (PI) double staining based flow cytometric analysis (reference value: 2.94 %); assay type: functional
MDA-MB-231 [20] = experiment: Induction of apoptosis in human MDA-MB-231 cells assessed as late apoptotic cells at 3 uM measured after 24 hrs by Annexin V/propidium iodide (PI) double staining based flow cytometric analysis (reference value: 1.84 %); assay type: functional
[21] = Selectivity ratio of IC50 for cytotoxicity against human MCF-10A cells to IC50 for antiproliferative activity against human MDA-MB-231 cells; assay type: toxicity, cell-based; details: MCF-10A cells versus MDA-MB-231 cells, read-out: Ratio IC50

Sequence of Signal transducer and activator of transcription 3 (P40763 whole entry): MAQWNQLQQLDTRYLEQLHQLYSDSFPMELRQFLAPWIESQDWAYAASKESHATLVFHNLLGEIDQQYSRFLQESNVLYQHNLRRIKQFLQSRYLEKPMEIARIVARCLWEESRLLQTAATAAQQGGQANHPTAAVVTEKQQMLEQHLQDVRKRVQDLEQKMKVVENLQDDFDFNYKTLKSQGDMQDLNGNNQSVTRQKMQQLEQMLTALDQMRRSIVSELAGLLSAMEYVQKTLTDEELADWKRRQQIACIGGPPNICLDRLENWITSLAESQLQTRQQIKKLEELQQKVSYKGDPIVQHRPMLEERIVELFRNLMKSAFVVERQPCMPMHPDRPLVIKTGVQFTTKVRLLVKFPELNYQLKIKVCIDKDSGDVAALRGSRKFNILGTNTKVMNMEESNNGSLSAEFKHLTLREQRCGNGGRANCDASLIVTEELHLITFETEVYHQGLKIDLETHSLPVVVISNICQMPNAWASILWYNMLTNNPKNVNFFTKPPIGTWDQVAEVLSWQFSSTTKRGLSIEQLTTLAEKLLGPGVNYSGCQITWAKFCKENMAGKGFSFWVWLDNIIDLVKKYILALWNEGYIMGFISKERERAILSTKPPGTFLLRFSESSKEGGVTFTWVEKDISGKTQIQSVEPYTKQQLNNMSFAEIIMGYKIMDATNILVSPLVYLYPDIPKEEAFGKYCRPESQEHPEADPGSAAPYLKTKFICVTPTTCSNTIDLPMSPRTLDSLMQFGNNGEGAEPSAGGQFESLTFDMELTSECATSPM

For `O=C1C(=O)c2c(oc3c2CCN(CCN2CCCCC2)C3=O)-c2ccccc21`, which Activity (MDA-MB-468 [1]) is on record?
The Activity was 4.07%.

What about the Activity (MDA-MB-468 [2]) of the same compound?
The Activity was 17.75%.

And the Activity (MDA-MB-468 [3])?
Its Activity is 9.18%.

And the Activity (MDA-MB-231 [4])?
Its Activity is 25.08%.

And the Activity (MDA-MB-231 [5])?
Its Activity is 8.01%.

What about the pIC50 (MDA-MB-231 [6]) of the same compound?
Its pIC50 is 6.28.

And the Activity (MDA-MB-231 [7])?
Its Activity is 2.94%.

And the Activity (MDA-MB-231 [8])?
Its Activity is 4.67%.

And the Activity (MDA-MB-468 [9])?
Its Activity is 14.73%.

And the pIC50 (MCF7)?
The pIC50 was 5.98.

What about the pIC50 [10] of the same compound?
Its pIC50 is 6.40.

And the Activity (MDA-MB-231 [11])?
Its Activity is 5.26%.

What about the Activity (MDA-MB-231 [12]) of the same compound?
The Activity was 2.31%.

What about the Activity (MDA-MB-468 [13]) of the same compound?
Its Activity is 8.47%.

What about the pIC50 [14] of the same compound?
Its pIC50 is 5.48.

And the Activity (MDA-MB-468 [15])?
The Activity was 37.57%.

What about the pIC50 (MDA-MB-468 [16]) of the same compound?
Its pIC50 is 5.83.

And the Activity (MDA-MB-231 [17])?
The Activity was 13.99%.

What about the Activity (MDA-MB-468 [18]) of the same compound?
The Activity was 52.62%.

What about the Activity (MDA-MB-468 [19]) of the same compound?
The Activity was 7.36%.

And the Activity (MDA-MB-231 [20])?
The Activity was 27.43%.

And the selectivity ratio [21]?
The selectivity ratio was ~6.
